Literature values as cited in patent US10450322B2, “Low molecular weight derivatives of carboxamide halogenated porphyrins, namely chlorins and bacteriochlorins, and their applications thereof” (LUZITIN, S.A., priority 2015, dated 2019).

Conditions: at physiological pH; cited from earlier work

SMILES: Oc1cccc(-c2c3nc(c(-c4cccc(O)c4)c4ccc([nH]4)c(-c4cccc(O)c4)c4nc(c(-c5cccc(O)c5)c5ccc2[nH]5)CC4)C=C3)c1 [temoporfin, 5,10,15,20-tetra (m-hydroxyphenyl)chlorin]
- log POW: 5.5
